Values quoted from earlier work in patent US20140045806A1 (priority 2012, published 2014).

Test system: vaginal nerve fibers
Details: Pessina, Hoyt et al. 2006; cited from earlier work

CC(=O)[C@H]1CC[C@H]2[C@@H]3CCC4=CC(=O)CC[C@]4(C)[C@H]3CC[C@]12C [progesterone]
Number and size of the nerve terminals in the lamina propria: no effect

C[C@]12CC[C@H]3[C@@H](CCC4=CC(=O)CC[C@@]43C)[C@@H]1CC[C@@H]2O [testosterone]
Number and size of the nerve terminals in the lamina propria: increases the number and size of the nerve terminals
